Among the data in BindingDB's records for doi:10.1016/j.chembiol.2010.07.018 (University of Dundee, 2010) are IC50 values, retold here.

Starred links: 1 amine or outer side, 2 acyl side, 3 side chain; linkers in the order of their positions; H or OH if unused. Non-standard residues stand in square brackets, D forms with d. Residues, ends and D or L forms follow the SMILES beside them. Groups on a side chain read outwards from the residue. βAsp = O=C(O)[C@H](CC(=O)[*:2])N[*:1]; NMeF = CN[C@@H](Cc1ccccc1)C(=O)O; CO = O=C([*:1])[*:2]

The target of the assay is T1, Endochitinase A1 (Aspergillus fumigatus, UniProt Q873Y0).
T1 sequence (Q873Y0 whole entry): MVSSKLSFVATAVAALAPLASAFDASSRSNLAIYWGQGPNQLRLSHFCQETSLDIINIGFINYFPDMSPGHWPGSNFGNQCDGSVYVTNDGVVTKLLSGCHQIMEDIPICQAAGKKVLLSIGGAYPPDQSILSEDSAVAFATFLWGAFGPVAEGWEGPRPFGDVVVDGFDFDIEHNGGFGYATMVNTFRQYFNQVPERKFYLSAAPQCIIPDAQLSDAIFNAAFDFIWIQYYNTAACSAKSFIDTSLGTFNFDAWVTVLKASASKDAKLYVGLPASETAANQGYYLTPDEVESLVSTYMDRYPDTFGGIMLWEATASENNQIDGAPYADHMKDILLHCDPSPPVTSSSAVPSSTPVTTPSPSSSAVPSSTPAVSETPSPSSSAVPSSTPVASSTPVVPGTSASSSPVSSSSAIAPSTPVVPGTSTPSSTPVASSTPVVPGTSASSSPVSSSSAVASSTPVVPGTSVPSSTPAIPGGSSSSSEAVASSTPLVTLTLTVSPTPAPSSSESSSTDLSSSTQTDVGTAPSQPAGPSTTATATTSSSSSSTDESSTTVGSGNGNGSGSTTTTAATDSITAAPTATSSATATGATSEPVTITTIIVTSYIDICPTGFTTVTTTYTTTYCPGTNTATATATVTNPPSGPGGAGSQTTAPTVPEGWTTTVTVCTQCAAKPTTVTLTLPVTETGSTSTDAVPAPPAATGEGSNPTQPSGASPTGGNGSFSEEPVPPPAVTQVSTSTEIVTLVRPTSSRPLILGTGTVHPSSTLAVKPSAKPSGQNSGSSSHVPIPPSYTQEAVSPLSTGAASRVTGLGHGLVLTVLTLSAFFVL
In words: Enzyme Inhibition Assay. Particulars: pH 5.5; 37 °C.
The term IC50 denotes the concentration at which inhibition is half-maximal. A high value points to weaker potency in that assay. Turning to `CCN=C(N)NC(=O)NC` [Argifin-Derived Fragments, 2], 310 µM corresponded to half-maximal inhibition (IC50).

As to `CNC(=O)NC(N)=Nc1ccccc1` [Argifin-Derived Fragments, 6], the IC50 came out at 112 µM. `CCCN=C(N)NC(=O)NC` [Argifin-Derived Fragments, 3] displayed an IC50 of 62 µM. As for `CNC(=O)NC(=N)NCCC[C@@H]1NC(=O)[C@@H](C)NC(=O)C[C@@H](C(=O)O)NC(=O)C[C@@H](C(=O)O)NC(=O)[C@H](Cc2ccccc2)N(C)C1=O` [(2R,5S,8S,11S,15S)-8-benzyl-2,7-dimethyl-5-[3-({[(methylcarbamoyl)amino]methanimidoyl}amino)propyl]-3,6,9,13,17-pentaoxo-1,4,7,10,14-pentaazacycloheptadecane-11,15-dicarboxylic acid] (cyclo([NMeF][βAsp][βAsp][dA]R([CO-NHMe]))), the figure is greater than 3800 µM. In the case of `CNC(=O)NC(N)=NCc1ccccc1` [Argifin-Derived Fragments, 7] it was 299 µM; in that of `CCCCNC(=N)NC(=O)NC` [Argifin-Derived Fragments, 4], 38 µM.

`[H]/N=C(\NC)NC(=O)NC` [Argifin-Derived Fragments, 1] registered an IC50 of 79 µM. As for `CNC(=O)NC(=N)NC1CCCCC1` [Argifin-Derived Fragments, 5], the figure is 42 µM.
